Laboratory results from US6852688B2, “Compositions for treating diabetic retinopathy and methods of using same” (University of Florida, priority 2000, dated 2005).
“And” between values parts separate entries of the source, which are not always exact repeats. Equal values may be shown once.

How the values were obtained:
[1] = tested on: patients with type I diabetes and severe non-proliferative DR or non-"high risk" proliferative DR; experiment: Phase I human study: octreotide plus conventional diabetes management versus conventional management alone, 15 months; assay type: in vivo
From the text: A total of 39 patients with type I or type II diabetes and diagnosed with either severe non-proliferative DR or non-“high risk” proliferative DR were enrolled between 1991 and 1996 into Phase I or Phase II of the study. Subjects were recruited from patients treated for diabetes mellitus at the University of Florida Adult Endocrinology clinics and referrals from community retinal specialists. All patients provided written informed consent to participate in required study procedures. Volunteers in both phases of the study were randomized to receive conventional diabetes management alone (control group) or octreotide treatment with conventional diabetes care (OCT group). Octreotide was administered via subcutaneous injection 4 times daily or via continuous subcutaneous infusion with doses individually adjusted to the highest tolerated somatostatin analogue levels. The intent was to increase the dose of octreotide until serum IGF-1 was decreased to the hypopituitary range of 75 ng/mL or drug related adverse effects limited octreotide dosing. […] It was expected that approximately 35 to 50% of the control group would progress to photocoagulation within the 15-month period (The Diabetic Retinopathy Study Research Group: Indications for photocoagulation treatment of diabetic retinopathy: Diabetic Reinopathy Study Report No. 14. Int. Opthalmol. Clin. 27:239 (1987)).
Subjects were evaluated at monthly intervals for ocular changes using procedures established in the Early Treatment Diabetic Retinopathy Study (ETDRS) trial (Techniques for scatter and local photocoagulation treatment of diabetic retinopathy. Early Treatment Diabetic Retinopathy Study Report No. 3. The Early Treatment Diabetic Retinopathy Study Research Group. Int Ophthalmol Clin. 27:254-64 (1987)). Ocular examination included fluorescein angiograms and stereoscopic fundis photographs using seven standard photographic fields. Each field was 30 degrees with the first 2 fields centered on the disc and macula. The other fields imaged the surrounding retina. Photographs were assessed for severity of retinopathy using an extension of the modified Airlie House classification scheme. Severe non-proliferative DR required the presence of at least 3 of the following characteristics: cotton wool patches, venous beading, intraretinal microvascular abnormalities (IRMA) or extensive retinal hemorrhages. Inclusion criteria also required understanding the study protocol and willingness to participate in required study procedures. Exclusion criteria included: current use of tobacco products, regular medication other than prescribed antidiabetic agents and thyroxine, history of psychiatric illness, illicit drug use, sitting diastolic blood pressure values greater than […], serum creatinine clearance below 30 ml/min, and a body mass index that differed more than 20% from normal published ranges for the subject's height and sex.
Sixteen subjects with Type I diabetes participated in and completed the Phase-I protocol, with 8 patients randomly assigned to conventional diabetes management and 8 patients assigned treatment with maximally tolerated doses of octreotide in conjunction with routine diabetes management.
Initial octreotide doses of 500 μg/day were escalated based on IGF-1 levels to a maximum of 3000 μg/day during the 15-month treatment period. The range of maximally tolerated octreotide doses used throughout the 15-month treatment period was 600 to 3000 μg/day. The Phase protocol included a 5-day evaluation period with patients confined to the clinical research unit at study initiation. Octreotide treated patients were monitored for response to the initial 500 μg/day dose of octreotide (administered as a constant subcutaneous infusion). GH secretion was quantified from area under the serum concentration versus time curve (AUC) for blood samples collected every 2 to 4 hours throughout a 24-hour period. […]

[2] = tested on: human retinal endothelial cells; conditions: rapidly proliferating cells, in vitro; cited from earlier work
patients with early DR = conditions: cited from earlier work
[3] = tested on: patients with Type I or Type II diabetes and severe non-proliferative DR or non-"high risk" proliferative DR; experiment: Phase II human study: octreotide plus thyroid hormone (levothyroxine) versus conventional diabetes management, 15 months; assay type: in vivo; conditions: thyroxine alone 100 to 200 μg/day for hypothyroidism, no octreotide
From the text: A total of 39 patients with type I or type II diabetes and diagnosed with either severe non-proliferative DR or non-“high risk” proliferative DR were enrolled between 1991 and 1996 into Phase I or Phase II of the study. Subjects were recruited from patients treated for diabetes mellitus at the University of Florida Adult Endocrinology clinics and referrals from community retinal specialists. All patients provided written informed consent to participate in required study procedures. Volunteers in both phases of the study were randomized to receive conventional diabetes management alone (control group) or octreotide treatment with conventional diabetes care (OCT group). Octreotide was administered via subcutaneous injection 4 times daily or via continuous subcutaneous infusion with doses individually adjusted to the highest tolerated somatostatin analogue levels. […]
Subjects were evaluated at monthly intervals for ocular changes using procedures established in the Early Treatment Diabetic Retinopathy Study (ETDRS) trial (Techniques for scatter and local photocoagulation treatment of diabetic retinopathy. Early Treatment Diabetic Retinopathy Study Report No. 3. The Early Treatment Diabetic Retinopathy Study Research Group. Int Ophthalmol Clin. 27:254-64 (1987)). […] Photographs were assessed for severity of retinopathy using an extension of the modified Airlie House classification scheme. […]

[4] = octreotide treated group, p<0.05 vs conventionally treated group

Row | Structure (SMILES) | patients requiring PRP during the 15-month study ([1]; 8 patients per group, control also 4 of 8) | mean time for disease progression to laser surgery (PRP) ([1]; control 6.0 months, not different) [months] | mean HbA1c after at least 3 months of study ([1]; conventional management 8.1%±1.8%, p<0.05) | mean decrease in 24 hour AUC for GH (GH secretion) ([1]; initial 500 μg/day constant subcutaneous infusion, day 5 of treatment, compared to control, p<0.05) [%] | patients with IGF-1 decreased into the hypophysectomized range of 75 ng/ml ([1]; maximally tolerated doses 600 to 3000 μg/day) | effect on progression of DR ([1]; maximally tolerated octreotide in the absence of thyroid hormone replacement) | mean IGF-1 at the end of treatment ([1]; octreotide 600 to 3000 μg/day, 15 months, decreased from 241±58 ng/ml at study enrollment, p<0.05 vs control) [ng/mL] | decrease in insulin requirements [1, 4] [%] | improvement in proteinuria [1, 4] [%] | effect on IGF-I and b-FGF stimulated growth of cells [2] | retinal disease versus conventionally managed patients (patients with early DR; early DR, one year, 400 μg/day) | thyroid adverse finding (patients with early DR; infused for one year with 400 μg/day, no evidence for clinical significance) | control patients receiving thyroxine who required PRP [3]
1 | C[C@@H](O)[C@@H]1NC(=O)[C@H](CCCCN)NC(=O)[C@@H](Cc2c[nH]c3ccccc23)NC(=O)[C@H](Cc2ccccc2)NC(=O)[C@@H](NC(=O)[C@H](N)Cc2ccccc2)CSSC[C@@H](C(=O)N[C@H](CO)[C@@H](C)O)NC1=O [octreotide] | Four and 4 of 8 | 8.5 | 6.4%±0.9 | 33 | 1 of 8 | not effective in retarding progression of DR | 130 ± 38 | 29 | 82 | direct inhibitory effects | no difference | mild hypothyroidism | –
2 | N[C@@H](Cc1cc(I)c(Oc2cc(I)c(O)c(I)c2)c(I)c1)C(=O)O [thyroxine, levothyroxine] | – | – | – | – | – | – | – | – | – | – | – | – | 3 of the 7
